Experiments:
[1] = intraperitoneal injection of a few μg; cited from earlier work
rats [2] = test: Repeated inhalation of MALP-2 by mask in rats; assay type: in vivo, rat; settings: 30 μg inhaled by mask, six occasions at one-week intervals
Description: 2) With the aid of a mask, rats are made to inhale 30 μg doses of MALP-2 on six occasions at one-week intervals.

rats [3] = test: Intratracheal instillation of MALP-2 in rats, cells determined by bronchoalveolar lavage (BAL); settings: 3 μg instilled into the trachea
Description: 1) 3 μg of MALP-2 (an S-(2,3-bisacyloxypropyl)-cysteine peptide) are instilled into the trachea of rats. At various times after treatment, cells from the lung lumen are determined by means of bronchoalveolar lavage (BAL).

Substance: MALP-2: macrophage-activating lipopeptide (an S-(2,3-bisacyloxypropyl)-cysteine peptide) isolated from Mycoplasma fermentans
- leukocyte infiltration [1]: has brought about leukocyte infiltration
- clinical condition of the animals (rats [2]): clinically not noteworthy
- lymphatic tissue in the bronchial mucosa (rats [2]): increase in the lymphatic tissue
- adverse effect on the animals (rats [3]): not detectable
- duration of the increase in leukocyte number (rats [3]): lasts for a few days
- food consumption, bodyweight, activity and behaviour (rats [3]): not noteworthy
- number of leukocytes in the respiratory tracts and the alveolar space (BAL) (rats [3]; after a few hours): increase in the number of leukocytes
